According to patent US8207133B1, “Peptides that down regulate the activity of plasma membrane transporters including sodium-D-glucose cotransporter SGLT1” (Julius-Maximilians-Universitat Wurzburg, priority 2005, dated 2012):
Read-outs that look alike come from different tables or passages of the source. Residues, ends and D or L forms follow the SMILES beside them.

Legend:
hPEPT1 = molecular target: T1, hPEPT1 (Homo sapiens, UniProt P46059); assay: Electrogenic peptide transport by hPEPT1 in oocytes, two-electrode voltage clamp; type: cell-based
T1 construct: expressed in transfected cells; host or cells: Xenopus laevis oocytes (cRNA injection, 30 ng per oocyte)
T1 sequence (P46059 1-708): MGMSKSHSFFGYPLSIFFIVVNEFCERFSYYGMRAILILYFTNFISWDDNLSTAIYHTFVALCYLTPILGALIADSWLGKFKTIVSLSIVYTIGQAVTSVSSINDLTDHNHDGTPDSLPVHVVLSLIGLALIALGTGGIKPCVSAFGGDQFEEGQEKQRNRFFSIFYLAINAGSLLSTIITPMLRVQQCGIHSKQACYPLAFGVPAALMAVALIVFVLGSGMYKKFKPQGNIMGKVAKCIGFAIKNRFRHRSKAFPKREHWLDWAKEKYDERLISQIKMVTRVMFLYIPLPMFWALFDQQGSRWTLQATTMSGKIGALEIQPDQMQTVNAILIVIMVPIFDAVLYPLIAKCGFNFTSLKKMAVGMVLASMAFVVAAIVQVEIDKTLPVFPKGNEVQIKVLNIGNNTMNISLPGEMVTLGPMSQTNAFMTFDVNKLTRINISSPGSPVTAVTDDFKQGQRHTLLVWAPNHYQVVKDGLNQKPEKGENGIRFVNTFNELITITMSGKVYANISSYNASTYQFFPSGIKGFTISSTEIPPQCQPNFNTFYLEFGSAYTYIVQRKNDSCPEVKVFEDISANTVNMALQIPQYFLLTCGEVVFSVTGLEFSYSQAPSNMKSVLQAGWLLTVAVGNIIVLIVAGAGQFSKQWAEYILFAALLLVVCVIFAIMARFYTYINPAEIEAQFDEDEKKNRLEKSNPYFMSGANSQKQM
Method: The oocytes were incubated for three days at 16° C. in ORi buffer (in mM: 5 HEPES-Tris, pH 7.4, 100 NaCl, 3 KCl, 2 CaCl2, and 1 MgCl2). […] The oocytes were superfused with Ori buffer titrated to pH 6.5, the membrane potential of the oocytes was clamped to −40 mV, and inward current induced by superfusion with Ori buffer (pH 6.5) containing 5 mM of a control dipeptide or 5 mM of the tested tripeptide was measured.

[1] = tested on: RS1 at the TGN in LLC-PK1 cells; assay: Immunostaining of RS1 in subconfluent LLC-PK1 cells after brefeldin A; type: cell-based; settings: 2 μg/ml brefeldin A, 1 min or 5 min
Method: For immunostaining, LLC-PK1 cells were grown on coverslips to about 50% confluence. The cells were washed twice with washing buffer (5 mM 3-(N-morpholino)propanesulfonic acid-NaOH, pH 7.4, 100 mM NaCl, 3 mM KCl, 2 mM CaCl2, and 1 mM MgCl2), fixed for 12 min with 4% (w/v) paraformaldehyde diluted in washing buffer, and washed twice again. Free aldehyde groups were quenched by 10 min incubation with washing buffer containing 40 mM glycine. For immunoreactions, washed cells were permeabilized by a 10-min incubation with washing buffer containing 0.25% (w/v) TritonX-114, and incubated over night at 4° C. with primary antibodies diluted in washing buffer. The dilutions of primary antibodies were as follows: rabbit-anti-RS1-Ab 1:50 (Valentin (2000), Biochim. Biophys. Acta, 1468, 367-380); QIS30 directed against SGLT1 1:400 (Kipp (2003), Am. J. Physiol., 285, C737-C749), sheep-anti-TGN46 1:125 (from Diagnostic International, Schriesheim, Germany). After incubation with primary antibodies, cells were washed 3 times with washing buffer and incubated for 1 h at room temperature with fluorochrome linked secondary antibodies (goat antibody against rabbit IgG linked to AlexaFluor 488 Molecular Probes, Leiden, Netherlands, and donkey anti-sheep IgG coupled to Cy2 from Dianova, Hamburg, Germany). […]

[2] = 10 mM QCP in drinking water pH 6.0, 2 months, standard chow or sugar low diet
Source text: The body weight development with and without peptide treatment is compared over 2 months.

SGLT1 = settings: 60 min pre-incubation, pH 6.5, 3 mM QCP, 0.1 mM D-glucose
Method: Walls of small intestinal mucosa from mice are inserted into an Ussing chamber and the SGLT1 mediated transepitehila currents are measured that are induced by addition of 0.1 mM D-glucose to the mucosal side. The intestinal walls are pre-incubated for 60 min with buffer at pH 6.5 containing 0.1 mM D-glucose or with buffer at pH 6.5 containing 0.1 mM D-glucose plus 3 mM of QCP. After washing glucose-induced transepithelial currents are measured.

hOCT2 = settings: intracellular AMG 0.1 mM, <0.01 mM or 10 mM
Method: Corresponding measurements were performed in the presence of intracellular AMG concentrations of 0.1 mM, <0.01 mM or 10 mM.

hSGLT1 [3] = assay: [14C]AMG uptake after incubating oocytes expressing hSGLT1 with or without hPEPT1 with tripeptide in the medium; type: cell-based, human; settings: pH 6.5
Method: In a different experimental setup, oocytes were injected with SGLT1 cRNA (2.5 ng per oocyte) or with hSGLT1 cRNA (2.5 ng per oocyte) plus hPEPT1 cRNA (10 ng per oocyte) and the oocytes were incubated 3 days for expression. Thereafter the oocytes were incubated 30 min with Ori buffer adjusted to pH 6.5 or with Ori buffer adjusted to pH 6.5 containing 3 mM of the tested tripeptide. Thereafter oocytes were washed with Ori buffer (pH 7.4) and uptake of [^14C]AMG was measured.
It was furthermore elucidated whether in human small intestine the expression of hSGLT1 can be inhibited by oral ingestion of QCP. […] Thereafter the oocytes were washed with neutral Ori buffer and the hSGLT1 expressed uptake of 50 μM [^14C]AMG was measured (FIG. 7). QCP had no effect in oocytes in which hSGLT1 but not hPEPT1 was expressed (data not shown). However, in oocytes expressing hSGLT1 plus hPEPT1, [^14C]AMG uptake was inhibited by about 50% when the oocytes had been incubated with QCP (FIG. 7). Incubation of oocytes expressing hSGLT1 plus hPEPT1 with PCQ had no effect on the expressed uptake of [^14C]AMG.

hSGLT1 [4] = assay: hSGLT1 expressed [14C]AMG uptake in Xenopus oocytes after injection of hRS1 protein or hRS1 peptides; type: cell-based, human
[5] = tested on: sodium dependent amino acid transporters; settings: 60 min, pH 6.5, 3 mM QCP, 10 mM amino acids
Method: Walls of small intestinal mucosa from mice are inserted into an Ussing chamber and transepitehial currents are measured that are induced by addition of 10 mM of various amino acids to the mucosal side. The intestinal walls are incubated for 60 min with buffer at pH 6.5 containing 0.1 mM D-glucose or with buffer at pH 6.5 containing 0.1 mM D-glucose plus 3 mM of QCP. After washing, amino acid induced transepithelial currents without and with preteatment with QCP are compared.

Q: Which “inward currents in oocytes expressing hPEPT1” value (hPEPT1; 5 mM peptide, pH 6.5, clamped to -40 mV) does the source give for `NCC(=O)N[C@@H](CCC(N)=O)C(=O)O` [GC, glycylglutamine, reference compound] (H-Gly-Gln-OH) here?
A: The value was “significant inward currents”.

Q: And the “inward currents in control oocytes not injected with hPEPT1 cRNA” value (hPEPT1; data not shown)?
A: The value was “no inward currents”.

Q: Which “immunoreactivity of RS1 at the perinuclear compartment” value [1] does the source give for `C[C@H]1CCC/C=C/[C@@H]2C[C@H](O)C[C@H]2[C@H](O)/C=C/C(=O)O1` [brefeldin A] here?
A: Its value is “disappeared within several minutes”.

Q: For Glutamine-Cysteine-Proline [QCP], which body weight [2] is on record?
A: Its body weight is “body weight is reduced”.

Q: And the transepithelial glucose flux (SGLT1)?
A: The transepithelial glucose flux was “inhibits transepithelial glucose flux”.

Q: And the “hOCT2 expressed [14C]TEA uptake after injection” value (hOCT2)?
A: Its value is “appears not to be inhibited”.

Q: And the “inward currents in control oocytes not injected with hPEPT1 cRNA” value (hPEPT1)?
A: The value was “no inward currents”.

Q: What about the “inward currents in oocytes expressing hPEPT1” value (hPEPT1; pH 6.5) of the same molecule?
A: The value was “significant inward currents”.

Q: And the “effect on AMG uptake in oocytes expressing hSGLT1 but not hPEPT1” value (hSGLT1 [3])?
A: Its value is “no effect”.

Q: And the “inhibition of [14C]AMG uptake in oocytes expressing hSGLT1 plus hPEPT1” value (hSGLT1 [3])?
A: The value was “about 50%”.

Q: And the “AMG uptake inhibition in the absence of BTXB” value (hSGLT1 [4])?
A: The value was “inhibited”.

Q: What about the “AMG uptake inhibition in the presence of BTXB” value (hSGLT1 [4]) of the same molecule?
A: Its value is “no significant inhibition”.

Q: And the “inhibition of glucose uptake expressed by hSGLT1” value (hSGLT1 [4])?
A: The value was “about 50%”.

Q: What about the “inhibition of hSGLT1 expressed AMG uptake after stimulation of protein kinase C” value (hSGLT1 [4]) of the same molecule?
A: Its value is “not changed”.

Q: What about the “inhibition of hSGLT1 expressed AMG uptake with coexpressed dominant negative mutant of dynamin I” value (hSGLT1 [4]) of the same molecule?
A: Its value is “not changed”.

Q: And the “inhibition of hSGLT1 expressed uptake of AMG after 3 h” value (hSGLT1 [4])?
A: The value was 60%.

Q: And the “inhibition of hSGLT1 expressed uptake of AMG after 5 h” value (hSGLT1 [4])?
A: Its value is “about 40%”.

Q: What about the “inhibition of hSGLT1 expressed uptake of AMG after 10 h” value (hSGLT1 [4]) of the same molecule?
A: The value was 20-30%.

Q: What about the “inhibitory effect on expression of hSGLT1 when the exocytotic pathway was blocked” value (hSGLT1 [4]) of the same molecule?
A: The value was “could be prevented”.

Q: What about the “intracellular concentration of QCP at which 35-40% inhibition was obtained” value (hSGLT1 [4]) of the same molecule?
A: Its value is “below 5 nM”.

Q: And the “inhibition of hSGLT1 expressed AMG uptake” value (hSGLT1 [4]; 0.05 µM)?
A: The value was 35-40%.

Q: And the “transepithelial flux of amino acids” value [5]?
A: The value was “inhibits transepithelial flux of amino acids”.

Q: What does the source list for “SDSDRIEP [Serine-Aspartic acid-Serine-Aspartic acid-Arginine-Isoleucine-Glutamic acid-Proline, octapeptide of hRS1, amino acid positions 43 to 50]”?
A: inhibition of glucose uptake expressed by hSGLT1 (hSGLT1 [4]): about 50%; inhibition of hSGLT1 expressed AMG uptake after stimulation of protein kinase C (hSGLT1 [4]): not changed; inhibition of hSGLT1 expressed AMG uptake with coexpressed dominant negative mutant of dynamin I (hSGLT1 [4]): not changed; inhibitory effect on expression of hSGLT1 when the exocytotic pathway was blocked (hSGLT1 [4]): could be prevented

Q: Which “inhibition of uptake of 50 μM [14C]AMG” value (hSGLT1 [4]; 50 nl/oocyte containing 1.5 mM peptide injected, 30 min) does the source give for “SVQPCQENQ [reverse nonapeptide of […], reference compound]” here?
A: Its value is “No inhibition”.
